The data set in a line: water solubility test. In kind it is physicochemical. Particulars: 32 mg in 8 ml of water, directly without stirring.

No end group written: not given here.

As to GPAGARGNDGATGAAGPPGPTGPAGPPGFP, the water solubility result is “clear solution with no color, no precipitation, and no floating matter”.
